Columns and labels:
[1] = Body weight changes in SW480 xenograft study; format: in vivo, NOD/SCID mice; details: day-17; oral BID*BIW, 45 mg/kg days 1-10, 50 mg/kg days 11-22
Protocol: (§1) NOD/SCID mice of circa 23 g of weight were inoculated with 1×10^7 SW480 human colorectal cancer cells in 50% Matrigel™ subcutaneously in a flank. A pair match was performed when tumors reached an average volume of 100-150 mm^3 to distribute animals into treatment group and vehicle control (n=8/group). Tumor volumes (expressed in mm^3) were measured twice weekly using a caliper on days 1, 4, 8, 11, 15, 18, 22 and 23 of the treatment period. (A) The average TVol (±standard error of mean (SEM)) of each treatment group are shown. […] (B) Changes in BW in percentage (expressed in g, ±SEM) on days 1, 4, 8, 11, 15, 18, 22 and 23 of the treatment period. (C) Changes in vehicle- and Example 13-treated TVol expressed in mm^3. TVol ratio of Example 13-treated vs vehicle control (T/C) is indicated.
Female 8-9 weeks of age NOD/SCID mice of about 23 g of weight were used for the study (Jiangsu GemPharmatech Co., Ltd). Mice were inoculated subcutaneously in the flank region with 1×10^7 SW480 cells in PBS mixed with Matrigel™ (1:1) in a final injection volume of 0.2 mL/mouse. Once tumors reached an average size of 100-150 mm^3, a pair match was carried out to distribute mice to the different treatment groups. […]
(§2) Tumor volumes (expressed in mm^3) were measured in two dimensions using a caliper on days 1, 4, 8, 11, 15, 18, 22 and 23 of the treatment period. […]

[2] = tested on: SW480 human colorectal cancer cells; test: SW480 colorectal cancer mouse xenograft model; format: in vivo, NOD/SCID mice
Protocol: as §1
The efficacy of Example 13 was assessed in a mouse xenograft model. To this end, the SW480 colorectal cancer xenograft model was used, in which the tumor cells were injected subcutaneously into the flanks of immune-deficient NOD/SCID mice (lack functional/mature T and B cells, functional immature macrophages and residual NK cell function). […]
as §2

MDA-MB-231 cells = test: MDA-MB-231 proliferation assay; format: cell-based; details: Homo sapiens, MDA-MB-231, 72 h, YO-PRO-1 Iodide readout
Method in brief: (§3)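 Cells seeded at 750 per well, treated next day for 72 h at 37 °C with 0.5% final DMSO. Cell number read by YO-PRO-1 fluorescence after lysis, normalized to DMSO (100%) and time-zero cells (0%). GI50 from 4-parameter logistic fit, maximum constrained to 100%.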

CAL-51 cells = test: CAL-51 proliferation assay; format: cell-based; details: Homo sapiens, CAL-51, 72 h, YO-PRO-1 Iodide readout
Method in brief: as §3

With `COCCN(C)c1c(O[C@H]2CC[C@H](N)CC2)ccc2c1CC(C)(C)c1c(N)ncnc1-2` [Example 13, 8-(trans-4-aminocyclohexoxy)-N7-(2-methoxyethyl)-N7,5,5-trimethyl-6H-benzo[h]quinazoline-4,7-diamine] the “maximal body weight loss” value [1] was 5%, the “tumor volumes during the treatment period compared with vehicle-treated” value ([2]; oral 45 mg/kg BID*BIW, treatment period) was “consistently smaller” and the “tumor volumes as % of the volume of the vehicle-treated group (T/C)” value ([2]; study endpoint day 23, oral BID*BIW, 45 mg/kg days 1-10, 50 mg/kg days 11-22, p=0.06) was 61%. For the same compound, the GI50 (MDA-MB-231 cells) was 100 to 2000 nM and the GI50 (CAL-51 cells) was less than 100 nM.

— US20260159486A1, “BENZO[H]QUINAZOLINE-4-AMINE DERIVATIVES FOR THE TREATMENT OF CANCER” (Redona Therapeutics, Inc., priority 2021, published 2026)
